Legend:
[1] = In vivo toxicity in mice (LD50)
Protocol: FIGS. 21A and 21B provides tables illustrating the in vivo toxicity and antimicrobial efficacy of coacervate complexes in accordance with various embodiments described herein. […] The data presented in both tables 2101 and 2102 reflect testing using a mouse model.
With reference to FIG. 21 and Table 2101 the in vivo toxicity of different antimicrobials was measured as a function of the lethal dose 50 (LD50) values (which is the amount of antimicrobial that kills 50% of the tested population). […] In fact, the LD50 level of Complex E is so high that is cannot be measured. […] This in-vivo toxicity data is further commensurate with the in vitro toxicity data and in vitro hemolysis data discussed above.

P. aeruginosa = experiment: Minimal inhibitory concentration toward P. aeruginosa; type: cell-based, Pseudomonas aeruginosa
Protocol: FIG. 15A presents a Graph 1500 illustrating the antimicrobial selectivity and efficacy of example therapeutic polymers and coacervate complexes against P. aeruginosa in accordance with various embodiments described herein. […] The tested efficacy is based on their respective minimal inhibitory concentrations (MICs) toward P. aeruginosa. […] The commercial standard antibiotic Polymyxin B sulfate (PolyB) and Complex X were also tested for selectivity and efficacy/toxicity for comparison. Complex X is used herein to refer to a coacervate complex formed with Polymer A in combination with PolyB (as opposed to Polymer A and the disclosed therapeutic polyguanidinium based Polymers). FIG. 15B provides a corresponding Table 1501 for Graph 1500. In addition to the MIC and HC50 values reflected in Graph 1500, Table 1501 also identifies the […] (SI) of the respective polymers and corresponding coacervate complexes. Repetitive description of like elements employed in respective embodiments is omitted for sake of brevity.

[2] = tested on: THP-1 cells (a human monocytic cell line); experiment: Biocompatibility/toxicity with THP-1 cells (cell viability); type: cell-based
Protocol: FIG. 17 presents a Graph 1700 illustrating the biocompatibility/toxicity of various therapeutic polymers and coacervate complexes with mammalian cells in accordance with various embodiments described herein. […] In accordance with the data reflected in Graph 1700, different dosages (e.g., from 2 ppm to 1000 ppm in μg/mL) of the respective polymers and coacervate complexes were incubated with the THP-1 cells for 24 hours at 37° C. The polymers tested include Polymer A, Polymer B, Polymer C, Polymer D, and Polymer E. The coacervates tested include Complex B, Complex C, Complex D, and Complex E. The percent cell viability detected at concentrations less than 63 ppm were substantially the same as those shown for 63 ppm, and thus are not depicted to minimize the complexity of the visualization.

Substance: Polymyxin B sulfate [PolyB]
- LD50 [1]: 5.4 mg/kg
- MIC toward P. aeruginosa (P. aeruginosa): 0.5 mg/L
- percent cell viability THP-1 ([2]; 1000 ppm, 24 hours at 37° C): below 20%
- cell viability THP-1 ([2]; about 250 ppm): 50%
- cell viability THP-1 ([2]; about 500 ppm): ~30%
